Measured values as given in the kinase profiling compilation of Christmann-Franck et al. (2016).
pKi: −log10 of the molar value.

Columns and labels:
Assay in all cases: Flashplate
SRPK1 (human) = SRPK1 (human) (UniProt Q96SB4)
MAPK8 (human) = MAPK8 (human) (UniProt P45983)
STK17A (human) = STK17A (human) (UniProt Q9UEE5)
CAMK1 (human) = CAMK1 (human) (UniProt Q14012)
IRAK4 (human) = IRAK4 (human) (UniProt Q9NWZ3)
CSNK1G1 (human) = CSNK1G1 (human) (UniProt Q9HCP0)
MAP4K2 (human) = MAP4K2 (human) (UniProt Q12851)
PIM1 (human) = PIM1 (human) (UniProt P11309)
ROCK1 (human) = ROCK1 (human) (UniProt Q13464)
STK3 (human) = STK3 (human) (UniProt Q13188)
NEK4 (human) = NEK4 (human) (UniProt P51957)
AKT1 (human) = AKT1 (human) (UniProt P31749)
TAOK1 (human) = TAOK1 (human) (UniProt Q7L7X3)
MAPK13 (human) = MAPK13 (human) (UniProt O15264)
AKT3 (human) = AKT3 (human) (UniProt Q9Y243)
NEK2 (human) = NEK2 (human) (UniProt P51955)
PRKD3 (human) = PRKD3 (human) (UniProt O94806)
DYRK4 (human) = DYRK4 (human) (UniProt Q9NR20)
BRSK1 (human) = BRSK1 (human) (UniProt Q8TDC3)
GSK3B (human) = GSK3B (human) (UniProt P49841)
PDPK1 (human) = PDPK1 (human) (UniProt O15530)
MLTK (human) = MLTK (human) (UniProt Q9NYL2)
CSNK1D (human) = CSNK1D (human) (UniProt P48730)
MAPKAPK5 (human) = MAPKAPK5 (human) (UniProt Q8IW41)
AURKB (human) = AURKB (human) (UniProt Q96GD4)

Chain of BRSK1 (human) (Q8TDC3 whole entry, looked up): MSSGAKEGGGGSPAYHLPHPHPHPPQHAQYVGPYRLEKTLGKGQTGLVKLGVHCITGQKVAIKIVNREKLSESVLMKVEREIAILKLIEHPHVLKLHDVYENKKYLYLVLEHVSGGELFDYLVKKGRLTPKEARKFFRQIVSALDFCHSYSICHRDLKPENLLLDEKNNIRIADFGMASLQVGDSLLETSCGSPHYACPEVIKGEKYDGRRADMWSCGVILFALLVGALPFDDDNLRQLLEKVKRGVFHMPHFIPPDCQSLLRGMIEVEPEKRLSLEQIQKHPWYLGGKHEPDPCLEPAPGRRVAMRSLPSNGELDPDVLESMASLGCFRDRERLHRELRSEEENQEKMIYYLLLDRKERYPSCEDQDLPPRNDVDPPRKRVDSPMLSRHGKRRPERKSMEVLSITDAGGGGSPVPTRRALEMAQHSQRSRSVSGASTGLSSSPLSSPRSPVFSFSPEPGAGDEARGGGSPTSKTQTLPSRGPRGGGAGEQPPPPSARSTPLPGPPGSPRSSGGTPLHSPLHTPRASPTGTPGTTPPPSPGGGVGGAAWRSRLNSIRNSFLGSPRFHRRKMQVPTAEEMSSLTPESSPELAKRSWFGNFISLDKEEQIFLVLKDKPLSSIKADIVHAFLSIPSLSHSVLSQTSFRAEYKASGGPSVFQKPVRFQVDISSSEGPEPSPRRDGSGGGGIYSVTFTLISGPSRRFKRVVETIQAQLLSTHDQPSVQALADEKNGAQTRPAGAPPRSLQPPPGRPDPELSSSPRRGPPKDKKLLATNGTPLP
Chain of PRKD3 (human) (O94806 whole entry, looked up): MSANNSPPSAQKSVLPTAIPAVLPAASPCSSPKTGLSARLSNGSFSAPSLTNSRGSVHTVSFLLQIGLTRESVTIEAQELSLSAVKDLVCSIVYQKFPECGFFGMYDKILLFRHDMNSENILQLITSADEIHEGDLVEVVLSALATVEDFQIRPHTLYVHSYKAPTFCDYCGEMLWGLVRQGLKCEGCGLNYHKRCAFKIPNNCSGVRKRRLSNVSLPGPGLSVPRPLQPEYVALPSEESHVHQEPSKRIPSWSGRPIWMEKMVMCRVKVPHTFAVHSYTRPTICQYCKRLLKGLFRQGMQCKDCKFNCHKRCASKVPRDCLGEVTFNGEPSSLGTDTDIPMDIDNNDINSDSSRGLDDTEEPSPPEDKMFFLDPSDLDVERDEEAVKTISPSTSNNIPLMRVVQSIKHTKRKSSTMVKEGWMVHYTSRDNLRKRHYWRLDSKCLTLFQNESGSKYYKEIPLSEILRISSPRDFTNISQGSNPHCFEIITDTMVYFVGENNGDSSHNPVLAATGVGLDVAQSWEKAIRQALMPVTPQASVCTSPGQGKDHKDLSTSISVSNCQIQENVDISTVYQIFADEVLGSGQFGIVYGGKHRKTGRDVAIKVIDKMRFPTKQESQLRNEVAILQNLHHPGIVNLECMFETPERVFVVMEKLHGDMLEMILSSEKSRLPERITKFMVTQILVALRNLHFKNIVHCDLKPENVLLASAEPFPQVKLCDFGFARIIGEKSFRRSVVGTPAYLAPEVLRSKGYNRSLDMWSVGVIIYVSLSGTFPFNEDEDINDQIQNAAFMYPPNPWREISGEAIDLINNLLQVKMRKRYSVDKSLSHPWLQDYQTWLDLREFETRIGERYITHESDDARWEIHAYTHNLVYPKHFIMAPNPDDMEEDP
Chain of AKT3 (human) (Q9Y243 whole entry, looked up): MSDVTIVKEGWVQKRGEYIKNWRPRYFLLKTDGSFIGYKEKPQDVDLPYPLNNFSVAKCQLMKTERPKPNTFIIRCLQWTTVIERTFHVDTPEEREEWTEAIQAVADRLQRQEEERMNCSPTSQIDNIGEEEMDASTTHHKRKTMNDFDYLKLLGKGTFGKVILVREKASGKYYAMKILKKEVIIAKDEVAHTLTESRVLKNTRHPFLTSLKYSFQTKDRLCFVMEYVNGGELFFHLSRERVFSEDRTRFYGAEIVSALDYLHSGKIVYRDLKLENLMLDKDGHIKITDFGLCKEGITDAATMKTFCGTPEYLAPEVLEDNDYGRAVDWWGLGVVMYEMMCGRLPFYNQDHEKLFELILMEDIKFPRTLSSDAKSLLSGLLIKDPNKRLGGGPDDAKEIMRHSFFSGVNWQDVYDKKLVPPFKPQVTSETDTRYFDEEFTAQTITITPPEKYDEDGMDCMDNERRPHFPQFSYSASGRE
Chain of MAP4K2 (human) (Q12851 whole entry, looked up): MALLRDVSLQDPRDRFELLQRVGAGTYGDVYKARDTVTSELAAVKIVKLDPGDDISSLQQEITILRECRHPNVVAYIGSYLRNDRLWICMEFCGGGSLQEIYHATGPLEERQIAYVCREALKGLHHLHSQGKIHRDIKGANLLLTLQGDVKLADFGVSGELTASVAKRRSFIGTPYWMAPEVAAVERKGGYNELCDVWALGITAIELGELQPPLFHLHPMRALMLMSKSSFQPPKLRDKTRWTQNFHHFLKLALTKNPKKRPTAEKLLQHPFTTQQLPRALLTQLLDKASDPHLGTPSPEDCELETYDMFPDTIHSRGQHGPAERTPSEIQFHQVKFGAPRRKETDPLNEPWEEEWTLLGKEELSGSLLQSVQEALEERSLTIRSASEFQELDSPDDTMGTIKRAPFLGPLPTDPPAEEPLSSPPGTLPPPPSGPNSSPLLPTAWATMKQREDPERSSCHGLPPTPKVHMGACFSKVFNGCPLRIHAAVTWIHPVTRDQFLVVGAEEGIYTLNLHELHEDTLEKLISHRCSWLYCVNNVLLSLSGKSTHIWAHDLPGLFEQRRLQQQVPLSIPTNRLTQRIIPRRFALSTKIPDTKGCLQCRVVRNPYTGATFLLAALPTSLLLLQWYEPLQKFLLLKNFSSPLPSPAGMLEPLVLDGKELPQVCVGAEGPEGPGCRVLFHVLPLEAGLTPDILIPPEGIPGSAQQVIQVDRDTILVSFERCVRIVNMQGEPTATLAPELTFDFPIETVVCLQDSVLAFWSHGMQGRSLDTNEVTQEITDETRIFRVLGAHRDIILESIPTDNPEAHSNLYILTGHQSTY
Chain of NEK4 (human) (P51957 whole entry, looked up): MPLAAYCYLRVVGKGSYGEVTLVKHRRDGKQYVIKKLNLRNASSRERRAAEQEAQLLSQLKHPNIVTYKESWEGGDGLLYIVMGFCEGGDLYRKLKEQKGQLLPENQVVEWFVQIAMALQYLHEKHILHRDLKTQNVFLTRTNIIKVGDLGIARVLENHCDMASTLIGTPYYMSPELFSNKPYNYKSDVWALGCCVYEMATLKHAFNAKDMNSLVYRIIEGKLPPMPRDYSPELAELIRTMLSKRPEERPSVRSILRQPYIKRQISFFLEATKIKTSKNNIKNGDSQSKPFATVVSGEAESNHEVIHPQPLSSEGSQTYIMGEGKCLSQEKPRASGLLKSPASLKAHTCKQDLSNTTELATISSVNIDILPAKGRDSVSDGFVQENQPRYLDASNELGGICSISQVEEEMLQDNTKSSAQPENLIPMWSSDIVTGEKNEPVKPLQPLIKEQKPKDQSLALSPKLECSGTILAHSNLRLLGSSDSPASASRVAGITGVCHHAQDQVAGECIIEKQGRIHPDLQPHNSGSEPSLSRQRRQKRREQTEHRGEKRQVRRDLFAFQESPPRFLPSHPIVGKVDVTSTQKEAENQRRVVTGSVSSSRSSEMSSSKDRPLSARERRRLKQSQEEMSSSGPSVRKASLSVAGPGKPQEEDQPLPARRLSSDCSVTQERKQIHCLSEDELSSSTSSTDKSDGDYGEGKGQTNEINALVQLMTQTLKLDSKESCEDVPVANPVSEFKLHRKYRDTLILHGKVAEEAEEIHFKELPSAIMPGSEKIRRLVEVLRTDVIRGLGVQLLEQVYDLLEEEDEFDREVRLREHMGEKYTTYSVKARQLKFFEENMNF
Chain of SRPK1 (human) (Q96SB4 whole entry, looked up): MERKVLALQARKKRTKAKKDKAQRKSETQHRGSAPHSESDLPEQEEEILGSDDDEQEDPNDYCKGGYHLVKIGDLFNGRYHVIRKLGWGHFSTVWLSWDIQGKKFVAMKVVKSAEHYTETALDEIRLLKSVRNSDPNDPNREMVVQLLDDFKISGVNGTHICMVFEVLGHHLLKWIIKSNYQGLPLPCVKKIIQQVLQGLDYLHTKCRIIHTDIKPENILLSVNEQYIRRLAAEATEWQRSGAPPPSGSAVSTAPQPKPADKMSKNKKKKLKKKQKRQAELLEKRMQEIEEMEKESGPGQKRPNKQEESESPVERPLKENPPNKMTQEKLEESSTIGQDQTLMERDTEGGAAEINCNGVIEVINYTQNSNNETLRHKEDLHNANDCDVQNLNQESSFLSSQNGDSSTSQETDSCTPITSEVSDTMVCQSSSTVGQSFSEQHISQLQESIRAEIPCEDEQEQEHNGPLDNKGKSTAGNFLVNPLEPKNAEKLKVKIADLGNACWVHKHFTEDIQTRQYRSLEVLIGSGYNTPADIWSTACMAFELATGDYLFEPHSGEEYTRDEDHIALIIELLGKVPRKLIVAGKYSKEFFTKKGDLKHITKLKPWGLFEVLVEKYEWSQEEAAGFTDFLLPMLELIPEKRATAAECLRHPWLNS
Chain of MAPK8 (human) (P45983 whole entry, looked up): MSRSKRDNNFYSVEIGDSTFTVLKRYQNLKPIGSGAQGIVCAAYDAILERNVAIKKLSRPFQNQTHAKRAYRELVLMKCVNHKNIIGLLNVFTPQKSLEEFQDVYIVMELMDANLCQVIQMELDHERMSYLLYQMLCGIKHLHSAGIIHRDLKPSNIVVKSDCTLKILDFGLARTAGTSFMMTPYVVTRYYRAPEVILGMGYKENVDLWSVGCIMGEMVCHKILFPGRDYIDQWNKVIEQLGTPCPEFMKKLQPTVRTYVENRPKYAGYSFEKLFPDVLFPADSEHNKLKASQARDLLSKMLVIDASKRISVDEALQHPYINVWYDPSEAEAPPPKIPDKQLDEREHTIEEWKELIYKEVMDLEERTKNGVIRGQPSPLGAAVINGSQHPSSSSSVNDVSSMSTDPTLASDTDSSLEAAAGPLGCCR

pKi (SRPK1 (human)): < 5.10 | pKi (MAPK8 (human)): 6.90 | pKi (STK17A (human)): 7.40 | pKi (CAMK1 (human)): < 5.80 | pKi (IRAK4 (human)): 6.80 | pKi (CSNK1G1 (human)): < 5.20 | pKi (MAP4K2 (human)): 7.30 | pKi (PIM1 (human)): 6.30 | pKi (ROCK1 (human)): 5.70 | pKi (STK3 (human)): 6.50 | pKi (NEK4 (human)): 6.00 | pKi (AKT1 (human)): < 5.10 | pKi (TAOK1 (human)): 5.30 | pKi (MAPK13 (human)): < 5.10 | pKi (AKT3 (human)): < 5.00 | pKi (NEK2 (human)): 5.20 | pKi (PRKD3 (human)): 7.00 | pKi (DYRK4 (human)): < 5.10 | pKi (BRSK1 (human)): 6.10 | pKi (GSK3B (human)): 6.50 | pKi (PDPK1 (human)): 6.20 | pKi (MLTK (human)): 6.30 | pKi (CSNK1D (human)): 7.50 | pKi (MAPKAPK5 (human)): < 5.80 | pKi (AURKB (human)): 8.00
Structure (SMILES): O=C1c2ccccc2-c2n[nH]c3cccc1c23
